Laboratory results: patent publication US20190016689A1, “NOVEL FLUORINATED QUINAZOLINE DERIVATIVES AS EGFR INHIBITORS” (TRILLIUM THERAPEUTICS INC., priority 2016, published 2019)

How the values were obtained:
HL-60(TB) = test: NCI screening panel (SRB); type: cell-based; conditions: Homo sapiens, HL-60(TB) (Leukemia), 48 h; for CC50: read-out: LC50 (the source's name)
COLO205 = test: NCI screening panel (SRB); type: cell-based; conditions: Homo sapiens, COLO 205, COLO205 (Colon), 48 h; for CC50: read-out: LC50 (the source's name)
HCC-2998 = test: NCI screening panel (SRB); type: cell-based; conditions: Homo sapiens, HCC-2998 (Colon), 48 h; for CC50: read-out: LC50 (the source's name)
HT29 = test: NCI screening panel (SRB); type: cell-based; conditions: Homo sapiens, HT-29, HT29 (Colon), 48 h; for CC50: read-out: LC50 (the source's name)
SW-620 = test: NCI screening panel (SRB); type: cell-based; conditions: Homo sapiens, SW-620 (Colon), 48 h; for CC50: read-out: LC50 (the source's name)
SNB-75 = test: NCI screening panel (SRB); type: cell-based; conditions: Homo sapiens, SNB-75 (CNS), 48 h; for CC50: read-out: LC50 (the source's name)
LOXIMVI = test: NCI screening panel (SRB); type: cell-based; conditions: Homo sapiens, LOX IMVI, LOXIMVI (Melanoma), 48 h; for CC50: read-out: LC50 (the source's name)
IGROV1 = test: NCI screening panel (SRB); type: cell-based; conditions: Homo sapiens, IGROV-1, IGROV1 (Ovarian), 48 h; for CC50: read-out: LC50 (the source's name)
OVCAR-4 = test: NCI screening panel (SRB); type: cell-based; conditions: Homo sapiens, OVCAR-4 (Ovarian), 48 h; for CC50: read-out: LC50 (the source's name)
OVCAR-5 = test: NCI screening panel (SRB); type: cell-based; conditions: Homo sapiens, OVCAR-5 (Ovarian), 48 h; for CC50: read-out: LC50 (the source's name)
SK-OV-3 = test: NCI screening panel (SRB); type: cell-based; conditions: Homo sapiens, SK-OV-3 (Ovarian), 48 h; for CC50: read-out: LC50 (the source's name)
786-0 = test: NCI screening panel (SRB); type: cell-based; conditions: Homo sapiens, 786-0 (Renal), 48 h; for CC50: read-out: LC50 (the source's name)
CAKI-1 = test: NCI screening panel (SRB); type: cell-based; conditions: Homo sapiens, CAKI-1 (Renal), 48 h; for CC50: read-out: LC50 (the source's name)
RXF393 = test: NCI screening panel (SRB); type: cell-based; conditions: Homo sapiens, RXF 393, RXF393 (Renal), 48 h; for CC50: read-out: LC50 (the source's name)
PC-3 = test: NCI screening panel (SRB); type: cell-based; conditions: Homo sapiens, PC-3 (Prostate), 48 h; for CC50: read-out: LC50 (the source's name)
MCF7 = test: NCI screening panel (SRB); type: cell-based; conditions: Homo sapiens, MCF7 (Breast), 48 h; for CC50: read-out: LC50 (the source's name)
HS578T = test: NCI screening panel (SRB); type: cell-based; conditions: Homo sapiens, Hs-578T, HS578T (Breast), 48 h; for CC50: read-out: LC50 (the source's name)
BT-549 = test: NCI screening panel (SRB); type: cell-based; conditions: Homo sapiens, BT-549 (Breast), 48 h; for CC50: read-out: LC50 (the source's name)
MDA-MB-468 = test: NCI screening panel (SRB); conditions: Homo sapiens, MDA-MB-468, 48 h; for CC50: read-out: LC50
EGFR = EGFR (Homo sapiens, UniProt P00533); test: Kinase assays, selectivity panel (qPCR); conditions: read-out: % Control @ 300 nM
Sequence of EGFR (P00533 25-1210): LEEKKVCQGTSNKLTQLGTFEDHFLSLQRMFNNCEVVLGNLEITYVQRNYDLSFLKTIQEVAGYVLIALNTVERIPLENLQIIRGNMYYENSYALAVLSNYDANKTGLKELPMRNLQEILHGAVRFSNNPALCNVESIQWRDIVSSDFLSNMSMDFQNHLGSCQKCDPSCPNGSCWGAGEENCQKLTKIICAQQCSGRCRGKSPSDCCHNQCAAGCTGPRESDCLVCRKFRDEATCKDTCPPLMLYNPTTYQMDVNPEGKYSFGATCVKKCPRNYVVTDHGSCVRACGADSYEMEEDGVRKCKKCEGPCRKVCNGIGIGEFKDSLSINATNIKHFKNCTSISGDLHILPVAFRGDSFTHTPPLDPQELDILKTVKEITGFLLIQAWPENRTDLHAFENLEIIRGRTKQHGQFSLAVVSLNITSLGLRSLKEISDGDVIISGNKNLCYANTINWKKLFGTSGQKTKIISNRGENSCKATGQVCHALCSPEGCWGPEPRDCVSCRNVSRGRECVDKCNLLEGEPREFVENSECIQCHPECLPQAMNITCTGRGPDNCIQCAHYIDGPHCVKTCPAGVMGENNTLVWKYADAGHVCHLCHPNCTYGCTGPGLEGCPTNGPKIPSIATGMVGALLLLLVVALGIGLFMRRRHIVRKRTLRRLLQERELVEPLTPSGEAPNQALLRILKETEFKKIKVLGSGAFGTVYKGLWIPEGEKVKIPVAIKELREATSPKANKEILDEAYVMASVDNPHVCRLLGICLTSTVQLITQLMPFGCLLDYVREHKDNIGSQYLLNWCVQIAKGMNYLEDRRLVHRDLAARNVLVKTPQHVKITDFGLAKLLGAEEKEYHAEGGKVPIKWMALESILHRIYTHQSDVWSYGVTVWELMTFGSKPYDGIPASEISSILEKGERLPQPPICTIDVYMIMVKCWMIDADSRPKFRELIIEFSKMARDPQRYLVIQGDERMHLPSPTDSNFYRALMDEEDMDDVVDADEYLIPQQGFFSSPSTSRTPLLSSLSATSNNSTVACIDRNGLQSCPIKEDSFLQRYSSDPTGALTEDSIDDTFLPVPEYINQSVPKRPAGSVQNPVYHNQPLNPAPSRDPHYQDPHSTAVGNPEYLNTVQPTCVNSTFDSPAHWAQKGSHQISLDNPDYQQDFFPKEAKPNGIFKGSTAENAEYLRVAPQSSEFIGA

EGFR (G719C) = EGFR (G719C) (Homo sapiens, UniProt P00533, G719C); test: Kinase assays, selectivity panel (qPCR); conditions: read-out: % Control @ 300 nM
Sequence of EGFR (G719C) (P00533 25-1210 G719C): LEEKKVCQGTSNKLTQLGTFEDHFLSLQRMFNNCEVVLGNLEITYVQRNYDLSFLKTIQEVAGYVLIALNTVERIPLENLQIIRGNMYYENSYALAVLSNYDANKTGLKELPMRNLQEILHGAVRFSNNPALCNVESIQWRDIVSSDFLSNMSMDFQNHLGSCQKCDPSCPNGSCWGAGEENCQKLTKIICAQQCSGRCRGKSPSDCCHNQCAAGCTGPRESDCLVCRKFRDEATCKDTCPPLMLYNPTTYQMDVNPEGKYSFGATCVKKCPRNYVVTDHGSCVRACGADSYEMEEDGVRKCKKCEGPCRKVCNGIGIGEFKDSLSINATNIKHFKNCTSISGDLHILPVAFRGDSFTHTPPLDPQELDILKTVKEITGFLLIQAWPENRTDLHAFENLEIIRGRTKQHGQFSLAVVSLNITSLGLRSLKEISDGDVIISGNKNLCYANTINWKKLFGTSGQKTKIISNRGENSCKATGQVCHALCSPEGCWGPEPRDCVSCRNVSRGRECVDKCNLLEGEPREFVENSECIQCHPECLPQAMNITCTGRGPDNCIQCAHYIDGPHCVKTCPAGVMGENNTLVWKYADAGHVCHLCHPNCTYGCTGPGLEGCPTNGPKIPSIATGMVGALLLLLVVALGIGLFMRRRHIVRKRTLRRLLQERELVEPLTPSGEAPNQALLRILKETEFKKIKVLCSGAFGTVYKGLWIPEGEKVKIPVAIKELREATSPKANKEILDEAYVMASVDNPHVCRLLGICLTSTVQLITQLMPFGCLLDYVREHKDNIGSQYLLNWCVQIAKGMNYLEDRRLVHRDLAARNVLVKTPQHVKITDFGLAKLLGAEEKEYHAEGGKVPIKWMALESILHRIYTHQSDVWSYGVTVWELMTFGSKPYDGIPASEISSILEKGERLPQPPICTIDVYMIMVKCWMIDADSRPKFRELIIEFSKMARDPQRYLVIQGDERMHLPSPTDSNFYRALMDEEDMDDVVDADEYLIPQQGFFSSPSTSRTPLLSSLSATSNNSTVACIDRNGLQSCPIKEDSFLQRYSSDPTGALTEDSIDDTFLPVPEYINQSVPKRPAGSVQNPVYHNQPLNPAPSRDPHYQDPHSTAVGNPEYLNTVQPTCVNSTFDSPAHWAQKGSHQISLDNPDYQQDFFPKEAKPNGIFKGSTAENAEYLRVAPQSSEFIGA

EGFR (G719S) = EGFR (G719S) (Homo sapiens, UniProt P00533, G719S); test: Kinase assays, selectivity panel (qPCR); conditions: read-out: % Control @ 300 nM
[1] = molecular target: EGFR (L747-E749del, A750P) (Homo sapiens, UniProt P00533, A750P/DEL747-749); test: Kinase assays, selectivity panel (qPCR); conditions: read-out: % Control @ 300 nM
Sequence of EGFR (L747-E749del, A750P) (P00533 with tags, fused parts or gaps DEL747-749/A750P): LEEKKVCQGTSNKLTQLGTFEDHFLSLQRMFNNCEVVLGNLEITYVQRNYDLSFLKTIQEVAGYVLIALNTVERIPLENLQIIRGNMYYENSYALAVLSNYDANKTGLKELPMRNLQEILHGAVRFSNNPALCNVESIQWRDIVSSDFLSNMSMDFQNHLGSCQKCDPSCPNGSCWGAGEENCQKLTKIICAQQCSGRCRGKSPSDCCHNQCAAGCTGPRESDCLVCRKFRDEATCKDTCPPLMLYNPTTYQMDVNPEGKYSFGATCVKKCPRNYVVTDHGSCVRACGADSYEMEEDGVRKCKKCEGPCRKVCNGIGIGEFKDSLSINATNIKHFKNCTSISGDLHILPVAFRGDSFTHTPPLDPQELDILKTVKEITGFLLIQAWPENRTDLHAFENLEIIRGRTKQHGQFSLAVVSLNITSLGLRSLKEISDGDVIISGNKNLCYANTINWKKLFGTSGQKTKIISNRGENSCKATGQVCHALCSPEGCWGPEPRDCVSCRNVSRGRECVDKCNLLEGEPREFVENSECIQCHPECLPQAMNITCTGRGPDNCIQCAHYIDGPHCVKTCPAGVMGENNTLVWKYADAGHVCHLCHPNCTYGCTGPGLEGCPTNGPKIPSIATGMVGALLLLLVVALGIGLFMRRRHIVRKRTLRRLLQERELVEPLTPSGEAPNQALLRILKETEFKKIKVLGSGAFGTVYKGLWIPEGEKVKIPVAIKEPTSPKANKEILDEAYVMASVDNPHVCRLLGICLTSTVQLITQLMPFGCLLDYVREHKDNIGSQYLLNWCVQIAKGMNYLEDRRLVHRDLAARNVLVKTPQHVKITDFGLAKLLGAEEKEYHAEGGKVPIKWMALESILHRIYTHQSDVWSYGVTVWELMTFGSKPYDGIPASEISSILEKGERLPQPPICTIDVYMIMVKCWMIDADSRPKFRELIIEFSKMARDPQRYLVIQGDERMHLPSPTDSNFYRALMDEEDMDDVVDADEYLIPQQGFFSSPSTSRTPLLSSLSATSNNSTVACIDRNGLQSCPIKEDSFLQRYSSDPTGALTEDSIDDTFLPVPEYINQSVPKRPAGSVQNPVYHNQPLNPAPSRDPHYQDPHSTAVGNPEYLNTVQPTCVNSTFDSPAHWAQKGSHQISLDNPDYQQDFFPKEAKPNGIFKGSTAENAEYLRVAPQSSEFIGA

EGFR (S752-I759del) = EGFR (S752-I759del) (Homo sapiens, UniProt P00533, DEL752-759); test: Kinase assays, selectivity panel (qPCR); conditions: read-out: % Control @ 300 nM
BLK (B-lymphoid TK) = BLK (B-lymphoid TK) (Homo sapiens, UniProt P51451); test: Kinase assays, selectivity panel (qPCR); conditions: read-out: % Control @ 300 nM
Sequence of BLK (B-lymphoid TK) (P51451 whole entry): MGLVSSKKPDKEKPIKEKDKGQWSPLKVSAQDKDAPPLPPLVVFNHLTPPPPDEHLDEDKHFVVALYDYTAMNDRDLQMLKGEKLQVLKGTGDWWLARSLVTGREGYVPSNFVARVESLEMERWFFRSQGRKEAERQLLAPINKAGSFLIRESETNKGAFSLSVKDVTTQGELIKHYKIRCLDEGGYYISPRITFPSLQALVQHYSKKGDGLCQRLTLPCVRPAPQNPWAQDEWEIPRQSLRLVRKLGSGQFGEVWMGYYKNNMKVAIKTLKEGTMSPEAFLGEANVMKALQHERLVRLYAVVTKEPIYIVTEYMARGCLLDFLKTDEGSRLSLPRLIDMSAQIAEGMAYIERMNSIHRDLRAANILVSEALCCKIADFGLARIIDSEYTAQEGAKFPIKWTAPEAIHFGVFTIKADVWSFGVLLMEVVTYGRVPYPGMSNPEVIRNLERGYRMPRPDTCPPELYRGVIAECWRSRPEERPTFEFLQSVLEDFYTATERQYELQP

[2] = Log D determination (1-octanol/buffer); type: physicochemical
Experimental: Prepare the stock solutions of test compounds and control compound progesterone in DMSO at the concentration of 30 mM. If test compound could not be dissolved completely, make a 10 mM stock solution with DMSO.
Place 5 μL of stock solution (30 mM) or 15 μL of stock solution (10 mM) of each sample in order into their proper 96-well rack. […] Add one stir stick to each vial and seal using a molded PTFE/Silicone plug. […] After completion of incubation, remove the stir sticks using a big magnet. Then centrifuge the samples at 25° C. at 20,000 g for 20 minutes to separate the phases, and use pipette and syringe to remove the upper (1-octanol) and lower (buffer) phases to the empty tubes, respectively. Take aliquots of 5 μL from upper phases followed by addition of 495 μL of methanol. Vortex for 1 minute, and then take aliquots of 50 μL from the diluent followed by addition of 450 μL of methanol. And take aliquots of 50 μL from lower phases followed by addition of 450 μL of methanol. A certain proportion of ultrapure water may be used according to the peak shape. The dilution factor may be changed according to the Log D value and the LC/MS signal response.

`CN(C)C/C=C/C(=O)Nc1cc2c(Nc3ccc(F)c(Cl)c3F)ncnc2cc1OCCOC(F)F.O=C(O)/C=C\C(=O)O.O=C(O)/C=C\C(=O)O` [Example I-9-MA, (E)-N-[4-(3-chloro-2,4-difluoro-anilino)-7-[2-(difluoromethoxy)ethoxy]quinazolin-6-yl]-4-(dimethylamino)but-2-enamide di-maleic acid salt] showed a GI50 (HL-60(TB)) of 1.73 µM, a CC50 (HL-60(TB)) of 32.2 µM and a GI50 (COLO205) of 1.23 µM. For the same molecule, the CC50 (COLO205) was 31.7 µM, the GI50 (HCC-2998) was 1.14 µM and the CC50 (HCC-2998) was 5.67 µM. It also gave a GI50 (HT29) of 0.383 µM, a CC50 (HT29) of 62.6 µM and a GI50 (SW-620) of 1.52 µM. The CC50 (SW-620) was 52.7 µM, the GI50 (SNB-75) was 0.129 µM and the CC50 (SNB-75) was 23.6 µM. For the same molecule, the GI50 (LOXIMVI) was 0.944 µM, the CC50 (LOXIMVI) was 4.91 µM and the GI50 (IGROV1) was < 0.01 µM. For the same molecule, the CC50 (IGROV1) was 32.5 µM, the GI50 (OVCAR-4) was 0.999 µM and the CC50 (OVCAR-4) was 32.4 µM. The GI50 (OVCAR-5) was 0.141 µM, the CC50 (OVCAR-5) was 47.9 µM and the GI50 (SK-OV-3) was < 0.01 µM. The CC50 (SK-OV-3) was 27.7 µM, the GI50 (786-0) was 0.248 µM and the CC50 (786-0) was 26.6 µM. For the same molecule, the GI50 (CAKI-1) was < 0.01 µM, the CC50 (CAKI-1) was 3.76 µM and the GI50 (RXF393) was 0.351 µM. For the same molecule, the CC50 (RXF393) was 15.1 µM, the GI50 (PC-3) was 2.55 µM and the CC50 (PC-3) was 58.5 µM. The GI50 (MCF7) was 1.4 µM, the CC50 (MCF7) was 57.8 µM and the GI50 (HS578T) was 1.24 µM. The CC50 (HS578T) was > 100 µM, the GI50 (BT-549) was 1.69 µM and the CC50 (BT-549) was 32.2 µM. The GI50 (MDA-MB-468) was < 0.01 µM, the CC50 (MDA-MB-468) was 0.701 µM and the remaining activity at 0.3 µM (EGFR) was 0.7%. The remaining activity at 0.3 µM (EGFR (G719C)) was 1.1%, the remaining activity at 0.3 µM (EGFR (G719S)) was 0.15% and the remaining activity at 0.3 µM [1] was 0.45%. The remaining activity at 0.3 µM (EGFR (S752-I759del)) was 0.5% and the remaining activity at 0.3 µM (BLK (B-lymphoid TK)) was 0.5%.

With `CN(C)C/C=C/C(=O)Nc1cc2c(Nc3ccc(F)c(Cl)c3)ncnc2cc1O[C@H]1CCOC1` [Afatinib, reference compound] the logD ([2]; pH 2.0) was -2.46 and the logD ([2]; pH 7.4) was 3.18.

`CN(C)C/C=C/C(=O)Nc1cc2c(Nc3cccc(Cl)c3F)ncnc2cc1OCCOC(F)F.O=C(O)/C=C\C(=O)O` [Example I-5-MA, (E)-N-[4-(3-chloro-2-fluoro-anilino)-7-[2-(difluoromethoxy)ethoxy]quinazolin-6-yl]-4-(dimethylamino)but-2-enamide dimaleic acid salt] gave a logD ([2]; pH 2.0) of -2.17 and a logD ([2]; pH 7.4) of 3.2.

With `O=C(/C=C/CN1CCCCC1)Nc1cc2c(Nc3ccc(F)c(Cl)c3F)ncnc2cc1OCCOC(F)F.O=C(O)/C=C\C(=O)O.O=C(O)/C=C\C(=O)O` [Example I-10-MA, (E)-N-[4-(3-chloro-2,4-difluoro-anilino)-7-[2-(difluoromethoxy)ethoxy]quinazolin-6-yl]-4-(1-piperidyl)but-2-enamide di-maleic acid salt] the GI50 (HL-60(TB)) was 1.75 µM, the CC50 (HL-60(TB)) was 30.8 µM and the GI50 (COLO205) was 1.74 µM. The CC50 (COLO205) was > 100 µM, the GI50 (HCC-2998) was 1.8 µM and the CC50 (HCC-2998) was 7.85 µM. It also gave a GI50 (HT29) of 1.14 µM, a CC50 (HT29) of 51.4 µM and a GI50 (SW-620) of 1.81 µM. The CC50 (SW-620) was 34.7 µM, the GI50 (SNB-75) was 0.274 µM and the CC50 (SNB-75) was 31 µM. The GI50 (LOXIMVI) was 1.34 µM, the CC50 (LOXIMVI) was 5.49 µM and the GI50 (IGROV1) was 0.0331 µM. The CC50 (IGROV1) was > 100 µM, the GI50 (OVCAR-4) was 1.31 µM and the CC50 (OVCAR-4) was 59.9 µM. It also gave a GI50 (OVCAR-5) of 0.776 µM, a CC50 (OVCAR-5) of 67.1 µM and a GI50 (SK-OV-3) of 0.0405 µM. For the same molecule, the CC50 (SK-OV-3) was 36 µM, the GI50 (786-0) was 0.929 µM and the CC50 (786-0) was > 100 µM. For the same molecule, the GI50 (CAKI-1) was 0.0229 µM, the CC50 (CAKI-1) was 6.53 µM and the GI50 (RXF393) was 0.959 µM. For the same molecule, the CC50 (RXF393) was 33.3 µM, the GI50 (PC-3) was 2.38 µM and the CC50 (PC-3) was 51 µM. For the same molecule, the GI50 (MCF7) was 1.84 µM, the CC50 (MCF7) was 59.8 µM and the GI50 (HS578T) was 1.41 µM. For the same molecule, the CC50 (HS578T) was > 100 µM, the GI50 (BT-549) was 2.47 µM and the CC50 (BT-549) was 36.2 µM. The GI50 (MDA-MB-468) was < 0.01 µM, the CC50 (MDA-MB-468) was 6.93 µM and the remaining activity at 0.3 µM (EGFR) was 2.7%. For the same molecule, the remaining activity at 0.3 µM (EGFR (G719C)) was 0%, the remaining activity at 0.3 µM (EGFR (G719S)) was 0% and the remaining activity at 0.3 µM [1] was 0.9%. It also gave a remaining activity at 0.3 µM (EGFR (S752-I759del)) of 0% and a remaining activity at 0.3 µM (BLK (B-lymphoid TK)) of 0.3%.
